Experimental data reported in patent US11478519B2, “Nutritional supplement containing iron” (CURA GLOBAL HEALTH (BVI) LIMITED, priority 2012, dated 2022).

Test system: Aspergillus oryzae
Protocol: The dose of iron was calculated as a concentration of iron elements rather than the concentration of salt; to enable comparison with the iron content in the fungal biomass. All fungal samples were thoroughly washed with deionizer water prior to testing by the ICP-OES method.
Other inorganic minerals such as selenium and zinc have been used to produce selenium or zinc enriched yeast, but the use of filamentous fungi has not been reported. […] A similar process (FIG. 2) was used for growing Aspergillus oryzae fortified with either sodium selenite or zinc sulfate. The dose of either inorganic salt was calculated as a concentration of the elements rather than the concentration of salt to enable comparison with the mineral content in the fungal biomass.

Structure (SMILES)	effect on fungal yield	toxicity to Aspergillus oryzae (Fe3+ 1-200 mg/L in corn-ethanol Syrup)
O=S(=O)([O-])[O-].[Zn+2] [Zinc, zinc sulfate]	increased fungal yield	
O=S(=O)([O-])[O-].O=S(=O)([O-])[O-].O=S(=O)([O-])[O-].[Fe+3].[Fe+3] [ferric sulfate, Ferric sulfate (Fe2(SO4)3.2H2O)]		not toxic
